# Reference: paper PMC3586822 (Chemico-biological interactions, 2012)
# Target: human AChE (Homo sapiens, UniProt P22303)
# Assay: coupled Ellman assay, second-order hydrolysis
# Assay type: biochemical
# Sequence of human AChE (P22303 32-614): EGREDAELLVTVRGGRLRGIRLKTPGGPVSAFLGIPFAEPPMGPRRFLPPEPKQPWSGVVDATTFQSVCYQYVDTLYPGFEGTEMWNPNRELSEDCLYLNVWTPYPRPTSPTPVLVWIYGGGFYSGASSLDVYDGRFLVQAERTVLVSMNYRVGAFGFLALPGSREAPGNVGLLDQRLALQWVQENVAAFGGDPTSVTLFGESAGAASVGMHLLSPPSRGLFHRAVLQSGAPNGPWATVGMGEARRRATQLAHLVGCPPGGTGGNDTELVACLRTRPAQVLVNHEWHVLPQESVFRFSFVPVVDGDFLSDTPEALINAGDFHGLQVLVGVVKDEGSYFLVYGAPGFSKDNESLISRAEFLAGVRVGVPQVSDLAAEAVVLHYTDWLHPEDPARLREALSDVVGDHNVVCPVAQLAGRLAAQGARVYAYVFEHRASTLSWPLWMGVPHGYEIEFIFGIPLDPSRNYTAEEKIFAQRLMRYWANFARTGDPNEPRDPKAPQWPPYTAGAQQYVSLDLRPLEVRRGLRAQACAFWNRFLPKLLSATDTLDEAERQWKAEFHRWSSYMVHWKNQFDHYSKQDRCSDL
structure (smiles),measurement,value
Cc1ccc2c(c1)sc(-c1ccc(N(C)C)cc1)[n+]2C [thioflavin T],Ki,1330 ± 50 nM
